Assay results: patent US8258119B2, “Anti-cancer drugs and uses relating thereto for metastatic malignant melanoma and other cancers” (Kasina Laila Innova Pharmaceuticals, priority 2008, dated 2012)
≈ marks a conversion by molar mass, not a printed value.

How the values were obtained:
[1] = test system: DU145 human prostate tumor cells; experiment: MTT cell proliferation assay in DU145 cells; type: cell-based; conditions: DU-145, read-out: 50% of inhibitory concentration, IC50 DU145
Description: MTT [3-(4,5-dimethylthiazol-2-yl)-2,5-diphenyltetrazolium bromide] incorporation based cell proliferation assay was performed using standard procedure with some modifications (38). The cytotoxic efficacy of the test compounds were evaluated in human malignant melanoma A2058 cells by MTT cell proliferation assay kit (Roche Applied Sciences, Germany). The assay was carried out according to the instruction provided by the vendor. Briefly, equal numbers of cells was plated in 96-well flat-bottomed plates in 100 μl of medium and were exposed to either DTIC or its derivative compounds at various concentrations up to 150 μg/ml for a period of three days. Vehicle control culture wells received only a maximum of 0.5% DMSO. Thereafter, 0.5 mg/ml of MTT reagent was added to each well and the microplate was incubated further for 4 h at 37° C. in presence of 5% CO2. Finally, the cells were solubilized by adding solubilizing solution and allowed to incubate at 37° C. overnight. After complete solubilization of the formazan crystals the absorbance was read at 540 nm in a microplate reader (BioRad, USA). The results (mean OD±SD) obtained from quadruplicate wells were used in calculation to determine the inhibition of cell proliferation (50% inhibitory concentration, IC50) of the test compounds.
Anti-tumor growth potential of Compound 1 and Compound 6 were evaluated in MCF-7 human breast tumor cells, MIA-PaCa2 human pancreas tumor cells and DU145 human prostate tumor cells by using MTT based cell proliferation studies as described earlier (example 19). The results (mean OD±SD) obtained from quadruplicate wells were used in calculation to determine the inhibition of cell proliferation (50% of inhibitory concentration, IC50) of the test compounds (Table 4).

[2] = test system: B16 F0 mouse melanoma cells; experiment: Cell cycle analysis by flow cytometry; type: cell-based; conditions: 24 h, propidium iodide FACS
Description: B16 F0 Cells were treated with the indicated concentrations of either vehicle (0.1% DMSO) or DTIC or Compound 6 for 24 h at different concentrations as indicated. The propidium iodide stained cells were analyzed for the distribution of cell cycle by FACS calibur, and the percentage of distribution at different phases of cell cycle was determined using ModFIT software. Data are shown as one representative of at least three independent experiments.
Cell cycle analysis of Compound 6 and DTIC treated B16F0 cells were analyzed by flow cytometry as described earlier with some modifications (42). Briefly, B16F0 cells were cultivated in DMEM containing 10% fetal bovine serum (FBS) in presence of 4.5 g/l D-glucose. The sub confluent cells were treated with either DTIC or Compound 6 and incubated for 24 h. Cells were harvested and prepared single cell suspension in buffer (PBS+2% FBS). The cells were washed twice with cold PBS and then fixed with cold 70% ethanol for 30 min. Ethanol was removed by centrifugation and the cells were suspended and the cell count was adjusted to 10^6 cells per ml. The cells were washed two times with PBS and then the cells were stained with propidium iodide for 30 min at 37° C. in presence of RNase. Finally, the cells were analyzed on FACS Calibur flow cytometry (BD Biosciences, USA). […]

B16F0 cells = experiment: B16F0 mouse melanoma cell invasion assay (Matrigel); type: cell-based; conditions: 100 μg/ml, 24 h, compared to vehicle or DTIC
Description: The inhibitory effects of DTIC and […] on In vitro invasive ability of B16F0 were tested in cell invasion assay performed with by using Matrigel (BME Cultrex®, R&D Systems, USA) coated cell culture inserts (Becton Dickinson, USA) with 8 μm-pore membrane. Equal number (fifty thousands) of B16F0 cells were applied in each insert well and allowed to attach for 2 h at 37° C. and in presence of 5% CO2. Thereafter, the cellular invasion through the matrigel layer was performed in presence or absence of test compounds. Either 100 μg/ml of DTIC or Compound 6 was applied in the lower chamber of the invasion assembly. 0.1% DMSO was applied in the vehicle control culture chambers. After 24 h treatment, the matrigel layer containing cells was removed with cotton plug and the invaded cells on the other side of the membrane were fixed with methanol for 5 min and then stained with Giemsa. The stained membrane was mounted on a glass slide and number invaded cells were counted in 20 random fields (20× objective) under a light microscope (Nikon Eclipse TS 100).

[3] = test system: Human umbilical vein endothelial cells (HUVEC); experiment: Endothelial cell migration assay; type: cell-based; conditions: 18 h
Description: The methodology of endothelial cell migration assay was essentially the same as described earlier with some modifications (43). FALCON™ Cell Culture inserts (Becton Dickinson, USA) with 8 μm-pores in their PET membrane was coated with 0.1 mg/ml of collagen. Human umbilical vein endothelial cells (HUVEC) were added to the cell culture inserts (Becton Dickinson) at a density of 5×10^4 cells/insert. Cells were allowed to migrate through the insert for 18 h in presence of different concentrations of either DTIC or Compound 6. The control culture containing migration assembly received only 0.1% DMSO. […] The membranes of the inserts were then mounted on glass slides. Cells migrated through the membrane pores were counted in 20 random fields under Nikon Eclipse TS 100 microscope at 20× objective.

B16 F0 melanoma = B16 F0 melanoma xenograft model of C57B6J mice; type: in vivo; conditions: for dose response of tumor growth inhibition: two dose levels (50 and 100 mg/kg), intra-peritoneal
Description: […] mice of 6 weeks age (body weight 18-22 g) were purchased from National Institute of Nutrition (NIN), Hyderabad (India). Animals study protocols were approved by Institutional Ethics Committee (IAEC). All the studies were performed in compliance with the Committee for the Purpose of Control and Supervision of Experiments on Animals (CPCSEA) guidelines and OECD guidelines. Animals were allowed free access to standard feed and provided charcoal filtered and UV exposed water ad libitum. The animals were maintained at a controlled temperature (24-26° C.), humidity (45-70%), and 12 h/12 h of light/dark cycle. To induce the melanoma tumor formation, sub-confluent B16F0 cells were harvested by brief trypsinization and 1×10^6 cells were injected subcutaneously in 0.2 ml phosphate-buffered saline. Drug treatment was started after development of palpable tumors (3-5 days after implantation of the cells). […] After fourteen days of treatment, the animals were sacrificed by CO2 inhalation and tumors were excised and weighed.

[4] = at therapeutic concentrations; cited from earlier work

Row | IC50 [1] [µg/mL] | melting point [°C] | Compound | effect on cell cycle distribution [2] | tumor cell invasion (B16F0 cells) | endothelial cell migration [3] | anti-tumor activity (B16 F0 melanoma; daily intra-peritoneal, fourteen days, tumor weight) | dose response of tumor growth inhibition (B16 F0 melanoma) | binding to human plasma protein [4]
1 | 62.6 (≈ 314 µM) | 108 to 110 | CN(C)/N=N/c1ccsc1C(=O)O [Compound 6, 3-[(dimethylamino)diazenyl]thiophene-2-carboxylic acid] | induction of cell cycle arrest in G2/M phase | significantly reduced malignant tumor cell invasion | significant inhibition of migration | better anti-tumor activity than DTIC | dose response inhibition at the two dose levels tested | 
2 | 87.2 (≈ 479 µM) |  | CN(C)/N=N/c1[nH]cnc1C(N)=O [DTIC, 5-(3,3-dimethyl-1-trizeno)-imidazole-4-carboxamide, reference compound] |  |  |  |  | failed to show statistically significant dose response | not appreciably bound
